# In patent publication US20260216343A1, “CONJUGATE, MICELLE AND ANTICANCER AGENT” (TOHOKU UNIVERSITY, priority 2023, published 2026):
# Where a name gives a salt, the structure may show the parent alone.
# How the values were obtained:
# [1] = Dose-dependent in vivo toxicity / maximum tolerated dose of HF; parameters: species or system WT C57BL/6 mice
# Description: (§1) Keap1^FB/FB:Kras^G12D mice were produced in the same manner as in Cancer Res, 15 Aug. 2020, 80(16):3331-3344, Genes & Dev., 2001, 15:3243-3248, and Am J Respir Cell Mol Biol., 2010 May, 42(5):524-36. All the mice used in this test had the C57BL/6J background. Saline, HF, and HFm were intravenously injected to the mice. All the in vivo experiments were approved by the animal welfare committee of Tohoku University.
# Monocytes were isolated from the bone marrow, the spleen, and the thymus using Ficoll-Paque PREMIUM 1.084 (Cytiva 17-5446-02). The monocytes were stained with allophycocyanin-eFluor 780 conjugate anti-c-Kit (Invitrogen; Clone 2B8), Brilliant Violet 421 conjugate anti-B220 (Biolegend; Clone RA2-6B2), phycoerythrin conjugate anti-F4/80 (Biolegend; Clone BM8), fluorescein isothiocyanate conjugate anti-Ly6G (Biolegend; Clone 1A8), Brilliant Violet 421 conjugate anti-CD11b (Biolegend; Clone M1/70), fluorescein isothiocyanate conjugate anti-CD71 (eBiosciences; CloneR17217), phycoerythrin conjugate anti-Ter119 (eBiosciences; Clone TER-119), PE-Cyanine7 conjugate anti-CD4 (Invitrogen; CloneGK1.5), and allophycocyanin conjugate anti-CD8 (Biolegend; Clone S3-6.7). The dead cells were removed using propidium iodide staining. The analysis was made using FACSVerse (BD Biosciences). The data were analyzed using FlowJo software (BD Biosciences).
# Preclinical animal testing was conducted to determine the maximum tolerated dose (hereinafter also referred to as MTD) of HF. […] Thus, in this test, HF was administered to WT C57BL/6 mice (eight to 12 weeks old, both females and males) incrementally in the range of 0.25 mg/kg to 1 mg/kg (FIG. 2A). HF was administered to the tail veins every two days four times in total.
# [2] = test system: Nrf2-activated lung adenocarcinoma; experiment: Tumor suppression in Kras-driven Nrf2-activated lung adenocarcinoma mouse model; format: in vivo, Keap1^FB/FB:Kras^G12D mice
# Description: as §1
# Adeno-Cre was purchased from VectorBioLabs (Ad-Cre-GFP, catalog no. 1700). Adeno-Cre was administered in the same manner as in Nat Protoc 4, 2009, 1064-1072. Briefly, 1×10^7 plaque-forming units of Adeno-Cre were mixed with Eagle's minimum essential medium (MEM) and calcium chloride. The mixture was incubated on ice for 20 minutes and used for intranasal dropping within one hour of the preparation. Droplets containing the Adeno-Cre mixture were administered to the nostrils of anesthetized mice (eight to 12 weeks old) using a pipette. The mice were allowed to inhale the droplets gradually.
# The lung tissues were fixed in 10% formalin (Mildform 10N; FUJIFILM Wako Pure Chemical Corporation, Osaka) and embedded in paraffin. The slices were stained with hematoxylin-eosin (HE) or elastica-Masson (EM). To measure the tumor areas, five slices were cut out with a certain distance and stained with HE. The tumor areas were measured using ImageJ software (NIH).
# To examine whether administration of HF or HFm could suppress the progress of Nrf2-activated non-small-cell lung cancer (NSCLC), a Kras-driven lung adenocarcinoma mouse model was used (Genes&Dev., 2001, 15:3243-3248). A mouse having a loxP-Stop-loxP Kras^G12D-knocked-in allele (hereinafter also referred to as “Kras mouse”) was mated with a mouse having a Keap1-flox allele in the loxP site including the third and fourth exons (hereinafter also referred to as “Keap1^FB”) (Am J Respir Cell Mol Biol., 2010 May, 42(5):524-36), and thus a Keap1^FB/FB:Kras^G12D complex mouse was obtained (Cancer Res, 15 Aug. 2020, 80(16):3331-3344). Through Cre recombination by intranasal infection with Adeno-Cre, activation of Kras cancer gene and deletion of Keap1 exons were achieved simultaneously. By this operation, Nrf2-activated lung adenocarcinoma was successfully imitated in mice.
# Then, after the tumor was grown for 17 weeks, administration of HF or HFm was started. HF or HFm was intravenously administered every two days, and injection was conducted four times in total. Because the MTD of HF was determined to be 0.75 mg/kg bw (FIG. 2), it was decided to use 0.75 mg/kg bw of HF or HFm in this cancer-bearing mouse experiment. The mice were sacrificed on the eighth day. Various characteristics of the lung tumors were analyzed, and the effectiveness of HF and HFm changing the tumor burden was evaluated (FIG. 4A).
# Next, by EM staining of the lung slices, the influence of HF and HFm on the malignancy of tumors was examined (FIG. 4C, bottom). Using images of the slices, the lung lesions were evaluated according to the guidelines of the system of the 2015 World Health Organization Classification of Lung Tumors (Front Oncol., 2017 Aug 28, 7: 193). Briefly, lung tumors include two types, namely a lepidic lesion and a papillary lesion. A lepidic lesion indicates in situ proliferation of cells along the alveolar walls (arrows with “x”), while a papillary lesion indicates proliferation away from the alveolar walls (arrows with “y”). A tumor with many papillary lesions is called Grade II, and it is known that the prognoses of a patient having many papillary tumors is poor compared to that of a patient having many lepidic tumors (Grade I). When the main component of the tumor is composed of a solid sheet and when no recognizable lepidic or papillary pattern is found, the tumor is classified as a solid tumor (Grade III).
# After KRAS-driven lung adenocarcinoma was grown for 17 weeks, the mice were treated with saline, HF (0.25 mg/kg), or HFm (0.25 mg/kg) every two days four times in total (FIG. 7A).
# [3] = 0.25 to 0.75 mg/kg iv four times
# [4] = 0.75 mg/kg bw iv four times, vs. saline
structure (smiles),measurement,setting,value
"O=C(CC1NCCCC1O)Cn1cnc2cc(Br)c(Cl)cc2c1=O (stereo not shown) [HF, Halofuginone hydrobromide]",bone marrow B cell count (B220+),[1]; 0.75 mg/kg iv four times,decreased
same,erythroblasts (Ter119+CD71+) of the spleen,[1]; 0.75 mg/kg iv four times,most of the erythroblasts disappeared
same,acute condition of mice,[1]; 1 mg/kg iv every two days,showed a sign of acute disorder after two injections and were moribund
same,body weight change,"[1]; 1 mg/kg iv, day 1 vs. day 4",−13.4%
same,mortality,"[1]; 1 mg/kg iv, eight mice, after second administration",one mouse in the administration group died
same,bone marrow precursor cell count (c-Kit+),[1]; [3],did not change largely
same,bone marrow total cell count,[1]; [3],did not change largely
same,erythroblasts (Ter119+CD71+) of the spleen,[1]; [3],decreased largely in a dose-dependent manner
same,erythrocyte counts in peripheral blood,[1]; [3],equivalent in all the groups
same,leukocyte count in peripheral blood,[1]; [3],decreased in a dose-dependent manner
same,platelet counts in peripheral blood,[1]; [3],equivalent in all the groups
same,thymus weight,[1]; [3],decreased with significance in a dose-dependent manner
same,whole cells of the spleen,[1]; [3],decreased largely in a dose-dependent manner
same,thymus CD4 single-positive (CD4+CD8-) cells,[1]; HF iv four times,decreased
same,thymus CD8 single-positive (CD4-CD8+) cells,[1]; HF iv four times,tendency towards a decrease
same,total cells of the thymus,[1]; HF iv four times,decreased
same,spleen weight,"[1]; increasing HF dose, iv four times",decreased stepwisely
same,maximum tolerated dose (MTD),[1]; iv every two days four times,0.75 mg/kg bw
same,number of papillary lesions vs. saline,[2]; 0.25 mg/kg bw iv four times,far smaller
same,number of solid tumors vs. saline,[2]; 0.25 mg/kg bw iv four times,smaller with significance
same,lung weight vs. saline-treated mice,"[2]; 0.75 mg/kg bw iv every two days four times, day 8",lower with significance
same,solid adenocarcinomas of Grade III,[2]; 0.75 mg/kg bw iv four times,disappeared completely
same,number of lepidic (Grade I) tumors,[2]; [4],equivalent numbers
same,number of papillary (Grade II) tumors,[2]; [4],equivalent numbers
same,frequency of the papillary tumors,"[2]; 0.75 mg/kg bw iv four times, vs. saline control",lower
same,tumor area (HE-stained lung sections),"[2]; 0.75 mg/kg bw iv four times, saline-treated group 21%",10%
same,lung weight decrease (saline vs. treatment),[2]; high dose (0.75 mg/kg),37.6%
same,tumor area decrease (saline vs. treatment),[2]; high dose (0.75 mg/kg),9.95%
same,lung weight decrease (saline vs. treatment),[2]; low dose (0.25 mg/kg),25.7%
same,tumor area decrease (saline vs. treatment),[2]; low dose (0.25 mg/kg),7.42%
same,disappearance of solid tumors,[2]; low-dose therapy (0.25 mg/kg bw),did not disappear completely
